These are literature values, as cited in patent publication US8968710B1, “Topical anesthetic” (priority 2005, dated 2015).

As to `CCCCNc1ccc(C(=O)OCCN(C)C)cc1` [Tetracaine], the “solubility in alcohol, ether, benzene and chloroform” value (alcohol, ether, benzene, chloroform) is on record as “soluble”. In addition, the solubility in water result (water) is given as “very slightly soluble”.
